According to publication PMC8319832, “Fine-Tuning of Alkaline Residues on the Hydrophilic Face Provides a Non-toxic Cationic α-Helical Antimicrobial Peptide Against Antibiotic-Resistant ESKAPE Pathogens” (Frontiers in Microbiology, 2021):
≈ marks a conversion by molar mass, not a printed value.

What was measured:
E. faecium 898 [1] = assay: Drug sensitivity, Kirby-Bauer test; format: cell-based, Enterococcus faecium; parameters: key: 'S' represents susceptibility; 'I' represents intermediate efficacy; 'R' represents resistance; conditions: clinical isolate
Description: (§1) The bacteria used in this study included the standard strains S. aureus ATCC29213 and ATCC25923, E. faecalis ATCC29212, E. coli ATCC25922 and ATCC35218, A. baumannii ATCC19606, K. pneumoniae ATCC700603 and P. aeruginosa ATCC27853, these strains were purchased from the China Center of Type Culture Collection (CCTCC). The antimicrobial activities of the peptides were also determined against clinically isolated strains S. aureus 4188, 9124, 1176, S. epidermidis 9092, 6943, 888, E. faecalis 901, E. faecium 898, E. coli 2678, 2687, K. pneumoniae 9126, P. aeruginosa 9014, 9042, and A. baumannii 906, 13012, 13079, 9068, these strains were acquired from Taihe Hospital, Hubei University of Medicine. The drug sensitivities of the clinical isolates to the antibiotics were determined by the Kirby-Bauer test ([Chinnambedu et al., 2020]).

S. epidermidis 888 [2] = assay: Drug sensitivity, Kirby-Bauer test; format: cell-based; parameters: key: 'S' represents susceptibility; 'I' represents intermediate efficacy; 'R' represents resistance; conditions: clinical isolate
Description: as §1

E. faecalis 901 [3] = assay: Drug sensitivity, Kirby-Bauer test; format: cell-based; parameters: key: 'S' represents susceptibility; 'I' represents intermediate efficacy; 'R' represents resistance; conditions: clinical isolate
Description: as §1

S. epidermidis 6943 [4] = assay: Drug sensitivity, Kirby-Bauer test; format: cell-based; parameters: key: 'S' represents susceptibility; 'I' represents intermediate efficacy; 'R' represents resistance; conditions: clinical isolate, MRSE
Description: as §1

S. epidermidis 9092 [5] = assay: Drug sensitivity, Kirby-Bauer test; format: cell-based; parameters: key: 'S' represents susceptibility; 'I' represents intermediate efficacy; 'R' represents resistance; conditions: clinical isolate, MRSE
Description: as §1

S. aureus 9124 [6] = assay: Drug sensitivity, Kirby-Bauer test; format: cell-based, Staphylococcus aureus; parameters: key: 'S' represents susceptibility; 'I' represents intermediate efficacy; 'R' represents resistance; conditions: clinical isolate, MRSA
Description: as §1

S. aureus 1176 [7] = assay: Drug sensitivity, Kirby-Bauer test; format: cell-based, Staphylococcus aureus; parameters: key: 'S' represents susceptibility; 'I' represents intermediate efficacy; 'R' represents resistance; conditions: clinical isolate
Description: as §1

S. aureus 4188 [8] = assay: Drug sensitivity, Kirby-Bauer test; format: cell-based, Staphylococcus aureus; parameters: key: 'S' represents susceptibility; 'I' represents intermediate efficacy; 'R' represents resistance; conditions: clinical isolate
Description: as §1

[9] = tested on: K. pneumoniae ATCC 700603; assay: MIC, broth dilution; format: cell-based, Klebsiella pneumoniae; conditions: CLSI broth dilution, MHB, 37°C, 20 h, OD630, at least three repeats; standard strain
Description: (§2) All experiments were repeated at least three times.
(§3) To study the influence of physiological ions on the antimicrobial activities of the peptides, The MICs of the peptides were also determined against the standard bacterial strains cultured in MHB containing various salts at their physiological concentrations (150 mM NaCl, 4.5 mM KCl, 1 mM MgCl2, 2 mM CaCl2, 6 μM NH4HCO3, and 4 μM FeCl3) ([Ma et al., 2016]).

E. coli 2678 = assay: MIC, broth dilution; format: cell-based, Escherichia coli; conditions: CLSI broth dilution, MHB, 37°C, 20 h, OD630, at least three repeats; clinical isolate, ESBL
Excerpt: as §2

E. coli ATCC35218 = assay: MIC, broth dilution; format: cell-based, Escherichia coli; conditions: CLSI broth dilution, MHB, 37°C, 20 h, OD630, at least three repeats; standard strain
Excerpt: as §2

E. coli 2687 = assay: MIC, broth dilution; format: cell-based, Escherichia coli; conditions: CLSI broth dilution, MHB, 37°C, 20 h, OD630, at least three repeats; clinical isolate, ESBL
Excerpt: as §2

K. pneumoniae 9126 = assay: MIC, broth dilution; format: cell-based, Klebsiella pneumoniae; conditions: CLSI broth dilution, MHB, 37°C, 20 h, OD630, at least three repeats; clinical isolate, CRE
Excerpt: as §2

A. baumannii ATCC 19606 = assay: MIC, broth dilution; format: cell-based, Acinetobacter baumannii; conditions: CLSI broth dilution, MHB, 37°C, 20 h, OD630, at least three repeats; standard strain
Description: as §2, §3

S. epidermidis 888 [10] = assay: MIC, broth dilution; format: cell-based; conditions: CLSI broth dilution, MHB, 37°C, 20 h, OD630, at least three repeats; clinical isolate
Excerpt: as §2

E. faecalis 901 [11] = assay: MIC, broth dilution; format: cell-based; conditions: CLSI broth dilution, MHB, 37°C, 20 h, OD630, at least three repeats; clinical isolate
Excerpt: as §2

S. epidermidis 6943 [12] = assay: MIC, broth dilution; format: cell-based; conditions: CLSI broth dilution, MHB, 37°C, 20 h, OD630, at least three repeats; clinical isolate, MRSE
Excerpt: as §2

S. epidermidis 9092 [13] = assay: MIC, broth dilution; format: cell-based; conditions: CLSI broth dilution, MHB, 37°C, 20 h, OD630, at least three repeats; clinical isolate, MRSE
Excerpt: as §2

A. baumannii 906 = assay: MIC, broth dilution; format: cell-based, Acinetobacter baumannii; conditions: CLSI broth dilution, MHB, 37°C, 20 h, OD630, at least three repeats; clinical isolate, CRE, MDR
Excerpt: as §2

A. baumannii 13012 = assay: MIC, broth dilution; format: cell-based, Acinetobacter baumannii; conditions: CLSI broth dilution, MHB, 37°C, 20 h, OD630, at least three repeats; clinical isolate, CRE, MDR
Excerpt: as §2

A. baumannii 9068 = assay: MIC, broth dilution; format: cell-based, Acinetobacter baumannii; conditions: CLSI broth dilution, MHB, 37°C, 20 h, OD630, at least three repeats; clinical isolate, CRE, MDR
Excerpt: as §2

A. baumannii 13079 = assay: MIC, broth dilution; format: cell-based, Acinetobacter baumannii; conditions: CLSI broth dilution, MHB, 37°C, 20 h, OD630, at least three repeats; clinical isolate, CRE, MDR
Excerpt: as §2

P. aeruginosa 9042 = assay: MIC, broth dilution; format: cell-based, Pseudomonas aeruginosa; conditions: CLSI broth dilution, MHB, 37°C, 20 h, OD630, at least three repeats; clinical isolate
Excerpt: as §2

P. aeruginosa 9014 = assay: MIC, broth dilution; format: cell-based, Pseudomonas aeruginosa; conditions: CLSI broth dilution, MHB, 37°C, 20 h, OD630, at least three repeats; clinical isolate, CRE, MDR
Excerpt: as §2

E. faecium 898 [14] = assay: MIC, broth dilution; format: cell-based, Enterococcus faecium; conditions: CLSI broth dilution, MHB, 37°C, 20 h, OD630, at least three repeats; clinical isolate
Excerpt: as §2

S. aureus 9124 [15] = assay: MIC, broth dilution; format: cell-based, Staphylococcus aureus; conditions: CLSI broth dilution, MHB, 37°C, 20 h, OD630, at least three repeats; clinical isolate, MRSA
Excerpt: as §2

S. aureus 1176 [16] = assay: MIC, broth dilution; format: cell-based, Staphylococcus aureus; conditions: CLSI broth dilution, MHB, 37°C, 20 h, OD630, at least three repeats; clinical isolate
Excerpt: as §2

S. aureus 4188 [17] = assay: MIC, broth dilution; format: cell-based, Staphylococcus aureus; conditions: CLSI broth dilution, MHB, 37°C, 20 h, OD630, at least three repeats; clinical isolate, penicillin-resistant
Excerpt: as §2

| Molecule | Drug sensitivity of the isolate to the antibiotic (E. faecium 898 [1]) | Drug sensitivity of the isolate to the antibiotic (S. epidermidis 888 [2]) | Drug sensitivity of the isolate to the antibiotic (E. faecalis 901 [3]) | Drug sensitivity of the isolate to the antibiotic (S. epidermidis 6943 [4]) | Drug sensitivity of the isolate to the antibiotic (S. epidermidis 9092 [5]) | Drug sensitivity of the isolate to the antibiotic (S. aureus 9124 [6]) | Drug sensitivity of the isolate to the antibiotic (S. aureus 1176 [7]) | Drug sensitivity of the isolate to the antibiotic (S. aureus 4188 [8]) | further results |
| --- | --- | --- | --- | --- | --- | --- | --- | --- | --- |
| CO[C@H]1/C=C/O[C@@]2(C)Oc3c(C)c(O)c4c(O)c(c(/C=N/N5CCN(C)CC5)c(O)c4c3C2=O)NC(=O)/C(C)=C\C=C\[C@H](C)[C@H](O)[C@@H](C)[C@@H](O)[C@@H](C)[C@H](OC(C)=O)[C@@H]1C [Rifampin] | R | S | R | S | S | S | S | S |  |
| CC[C@H]1OC(=O)[C@H](C)[C@@H](O[C@H]2C[C@@](C)(OC)[C@@H](O)[C@H](C)O2)[C@H](C)[C@@H](O[C@@H]2O[C@H](C)C[C@H](N(C)C)[C@H]2O)[C@](C)(O)C[C@@H](C)C(=O)[C@H](C)[C@@H](O)[C@]1(C)O [Erythromycin] | R | R | R | R | R | R | R | S |  |
| CNC(C)C1CCC(N)C(OC2C(N)CC(N)C(OC3OCC(C)(O)C(NC)C3O)C2O)O1 (stereo not shown) [Gentamicin] | R | R | R | S | R | S | S | S |  |
| CC[C@H](C)[C@H](NC(=O)CN)C(=O)NCC(=O)N[C@@H](C)C(=O)N[C@H](C(=O)N[C@@H](CC(C)C)C(=O)N[C@@H](CCCCN)C(=O)N[C@H](C(=O)N[C@@H](CC(C)C)C(=O)N[C@H](C(=O)N[C@H](C(=O)NCC(=O)N[C@@H](CC(C)C)C(=O)N1CCC[C@H]1C(=O)N[C@@H](C)C(=O)N[C@@H](CC(C)C)C(=O)N[C@H](C(=O)N[C@@H](CO)C(=O)N[C@@H](Cc1c[nH]c2ccccc12)C(=O)N[C@H](C(=O)N[C@@H](CCCCN)C(=O)N[C@@H](CCCNC(=N)N)C(=O)N[C@@H](CCCCN)C(=O)N[C@@H](CCCNC(=N)N)C(=O)N[C@@H](CCC(N)=O)C(=O)N[C@@H](CCC(N)=O)C(N)=O)[C@@H](C)CC)[C@@H](C)CC)[C@@H](C)O)[C@@H](C)O)C(C)C)C(C)C [Melittin] |  |  |  |  |  |  |  |  | MIC [9]: 5 µg/mL (≈ 1.76 µM); MIC (E. coli 2678): 5 µg/mL (≈ 1.76 µM); MIC (E. coli ATCC35218): 5 µg/mL (≈ 1.76 µM); MIC (E. coli 2687): 2.5 µg/mL (≈ 0.878 µM); MIC (K. pneumoniae 9126): 5 µg/mL (≈ 1.76 µM); MIC (A. baumannii ATCC 19606): 2.5 µg/mL (≈ 0.878 µM); MIC (S. epidermidis 888 [10]): 2.5 µg/mL (≈ 0.878 µM); MIC (E. faecalis 901 [11]): 2.5 µg/mL (≈ 0.878 µM); MIC (S. epidermidis 6943 [12]): 2.5 µg/mL (≈ 0.878 µM); MIC (S. epidermidis 9092 [13]): 2.5 µg/mL (≈ 0.878 µM); MIC (A. baumannii 906): 2.5 µg/mL (≈ 0.878 µM); MIC (A. baumannii 13012): 2.5 µg/mL (≈ 0.878 µM); MIC (A. baumannii 9068): 2.5 µg/mL (≈ 0.878 µM); MIC (A. baumannii 13079): 2.5 µg/mL (≈ 0.878 µM); MIC (P. aeruginosa 9042): 5 µg/mL (≈ 1.76 µM); MIC (P. aeruginosa 9014): 5 µg/mL (≈ 1.76 µM); MIC (E. faecium 898 [14]): 5 µg/mL (≈ 1.76 µM); MIC (S. aureus 9124 [15]): 2.5 µg/mL (≈ 0.878 µM); MIC (S. aureus 1176 [16]): 5 µg/mL (≈ 1.76 µM); MIC (S. aureus 4188 [17]): 2.5 µg/mL (≈ 0.878 µM) |
| Penicillin | R | S | S | R | R | R | R | R |  |
